From patent US20040138245A1, “Product comprising mikanolide, dihydromikanolide or an analogue thereof combine with another anti-cancer agent for therapeutic use in cancer treatment” (priority 2001, published 2004)
Where “and” joins values, the source holds several entries; their conditions need not be identical. Identical values can stand only once.

Test system: HT-29 (human colon cancer cells)
Experiment: Measurement of cellular proliferation in vitro (WST1 colorimetric test, 120 hours)
Format: cell-based
Conditions: HT29 cells
Experimental: The cell line HT-29 (human colon cancer cells) was acquired from the American Tissue Culture Collection (Rockville, Md., USA).
The HT-29 cells (4000 cells/wells) are cultured on 96-well plates.
On day 0, these cells are seeded in 90 μl of Dulbecco's modified Eagle medium (Gibco-Brl, Cergy-Pontoise, France) completed with 10% of foetal calf serum inactivated by heating (Gibco-Brl, Cergy-Pontoise, France), 50000 units/l of penicillin and 50 mg/l of streptomycin (Gibco-Brl, Cergy-Pontoise, France), and 2 mM of glutamine (Gibco-Brl, Cergy-Pontoise, France).
The cells were treated simultaneously with concentrations of the compounds to be tested singly or in combination for 120 hours.
At the end of the of this period, quantification of the cellular proliferation is evaluated by colorimetric test based on the cleavage of the tetrazolium salt WST1 by the mitochondrial […] in the living cells leading to the formation of formazan (Boehringer Mannheim, Meylan, France). These tests are carried out four times with 6 determinations for each single product and for each combination tested. This allows determination of the number of living cells at the end of each treatment.

[NH2][Pt]([NH2])([Cl])[Cl] [Example B1, cisplatin, reference compound]
% of living cells (single compound at 6.25 μM): 48%

hydrochloride of 8-(dimethylamino)-3,10a-dimethyl-2,6-dioxodecahydro-4,7-methenofuro[3,2-c]oxireno[f]oxacycloundecin-9-yl 2-naphthylcarbamate [Example A2]
% of living cells (single compound at 5 μM): 67% and 72% and 55%

C[C@H]1C(=O)O[C@H]2C[C@]3(C)O[C@@H]3[C@@H]3O[C@@H]3C3=C[C@@H](OC3=O)[C@@H]21 [Example A1, dihydromikanolide]
% of living cells (single compound at 5 μg/ml): 61% and 64%

CC(C)[C@H](CO)Nc1nc(NCc2cccnc2)n2ncc(Br)c2n1 [Example B3, 8-bromo-2-(1R-isopropyl-2-hydroxyethylamino)-4-(3-pyridylmethylamino)pyrazolo[1,5-a]-1,3,5-triazine]
% of living cells (single compound at 100 nM): 104%

NC(CS)C(=O)N1CCn2cc(-c3ccccc3)nc2C1CC1CCCCC1 (stereo not drawn) [Example B2, 7-(2-amino-1-oxo-3-thiopropyl)-8-(cyclohexylmethyl)-2-phenyl-5,6,7,8-tetrahydroimidazo[1,2a]pyrazine]
% of living cells (single compound at 25 μM): 37% and 64%

4-(2-bromophenyl)-1-(2-(1-((4-cyano-3-methoxy)phenylmethyl)imidazo-5-yl)-1-oxoethyl)-1,2-dihydro-8-fluoroimidazol[1,2a][1,4]-benzodiazepine [Example B4]
% of living cells (single compound at 5 μM): 93% and 78%
